Reference: patent EP1565179B1, “COMPOSITION COMPRISING A CARBAMIC ACID DERIVATIVE, ITS USE AS COSMETIC AND MEDICINE” (Laboratoires Expanscience, priority 2002, dated 2004)

Legend:
[1] = system: cellules de Langerhans (CL) et cellules dendritiques (CD); experiment: Migration of skin dendritic cells (FITC+) to draining lymph nodes in mice after topical FITC hapten application; assay type: in vivo, souris; details: 0,5% topical formulation on mouse ears twice daily for 4 days; 1,5% FITC; lymph nodes analysed 24 h later
Source text: Le FITC (Fluorescéine isothiocyanate, Sigma, St. Louis, MO) a été dilué extemporanément dans un mélange acétone: dibutylphthalate (1:1).
L'acide carbamique A (acide 1-Hydroxyméthyl-tridécyl carbamique) et le LU105 (LU 105 est un inhibiteur de MMPs, correspondant à un extrait peptidique de lupin blanc commercialisé par la Société Expanscience sous le nom de marque Actimp 193®) ont été fournis par les "Laboratoires Expanscience", et formulés seuls ou en association dans un véhicule inerte compatible avec une application topique tel que décrit à l'exemple 1 ci-dessus [Acide carbamique A (0,5%) ± LU105 (2%)]. Les différentes formulations ont été appliquées sur les oreilles de souris deux fois par jour pendant 4 jours consécutifs. Trois heures après la dernière application, 1,5% de FITC sont appliqués sur les deux oreilles (l'une traitée et l'autre non traitée (Contrôle)).
L'effet des deux molécules a été évalué in vivo chez la souris. La peau des deux oreilles est badigeonnée avec 1,5% FITC (2X5 µl). 24 h après, les souris sont sacrifiées et une suspension cellulaire est préparée à partir des ganglions auriculaires et cervicaux (ganglions drainants, ci-après dénommés GL) ou à partir des ganglions popliteaux (ganglions non drainants, contrôle négatif). Les tissus ont été découpés et les cellules sont séparées par filtration (filtre […], Falcon; Becton Dickinson), puis lavés. […]

[2] = system: cellules dendritiques générées in vitro à partir de précurseurs CD34+ issus de sang de cordon; experiment: Migration of hapten BB-sensitised in vitro generated dendritic/Langerhans cells through Matrigel in a two-compartment culture chamber; assay type: cell-based
Protocol: Des cellules mononuclées ont été obtenues à partir de sang de cordon ombilical de donneurs sains, par centrifugation sur Ficoll. Les cellules CD34+ ont ensuite été purifiées par immunosélection à l'aide d'anticorps spécifique et de billes magnétiques (Miltenyi Biotech, Allemagne). Les cellules CD34+ ont été cultivées en présence de GM-CSF (100 ng/ml), TNF-α (2,5 ng/ml) en RPMI additionné de 10% sérum de veau foetal, pendant 5 jours. L'addition de TGF-β1, facteur qui favorise la différenciation des cellules vers la voie cellules de Langerhans, a été réalisée au cinquième jour de culture.
Le milieu de base choisi pour l'ensemble de l'étude a été le RPMI 1640 (Gibco BRL, France). Le composé A fourni par EXPANSCIENCE, à la concentration de 10^-2 M en solution dans du DMSO (Diméthyl Sulfoxide), a été dilué en RPMI-1640 et testé à 1 µM.
Les cellules ont été traitées, au septième jour, par l'haptène BB (Base de Brandowski, 1,17 µg/ml), pendant 24 h, puis soumises au test de migration.
Un système de chambre de culture à deux compartiments (Falcon, Becton Dickinson, France) a été utilisé. Le compartiment supérieur est séparé du compartiment inférieur par une membrane de porosité 8 µm, sur laquelle sont déposées 50 µg/cm^2 de Matrigel. […]

`CCCCCCCCCCCCC(CO)NC(=O)O` (stereo not drawn) [Composé A, (1-Hydroxyméthyl-tridécyl)-acide carbamique] was tested, and the “Inhibition de la migration en %” value [1] was 25%, the “Pourcentage de cellules dendritiques générées in vitro ayant migré” value ([2]; 1 µM, cells sensitised with hapten BB (1,17 µg/ml, 24 h), 18 h incubation at 37°C, BB-only control 20) was 15% and the inhibition at 1 µM ([2]; read-out: inhibition de la migration des cellules dendritiques générées in vitro et activées par l'haptène BB) was 25%.
